Laboratory results reported in patent US6737383B1, “Herbicidal oxadiazolidines” (priority 1999, dated 2004).

Assays:
sugar beet = experiment: Test B pre/postemergence sugar beet; assay type: in vivo, Beta vulgaris
Summary of the method: (§1)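 Test chemicals in a non-phytotoxic solvent mixture with surfactant were sprayed preemergence onto planted seeds and postemergence onto plants 2 to 18 cm tall (1- to 4-leaf stage). After twelve to sixteen days in a greenhouse, injury was visually rated against untreated controls from 0 (no effect) to 10 (complete control).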

surinam grass = experiment: Test B pre/postemergence surinam grass; assay type: in vivo, Brachiaria decumbens
Summary of the method: as §1

morningglory = experiment: Test B pre/postemergence morningglory; assay type: in vivo, Ipomoea hederacea
Summary of the method: as §1

rice = experiment: Test B flood test rice; assay type: in vivo, Oryza sativa; details: for Plant response rating, Rice (0 to 10 scale, 0 is no effect, 10 is complete control): Rate 62 g/ha; for Plant response rating, Rice (0 to 10 scale, 0 is no effect, 10 is complete control) / Rice plant response rating (0 to 10 scale, 0 is no effect, 10 is complete control): visual evaluation after twelve to sixteen days; for Rice plant response rating (0 to 10 scale, 0 is no effect, 10 is complete control): Rate 125 g/ha, under heading Pre-emergence
Summary of the method: (§2)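 Each value is a visual injury score relative to controls, with 10 meaning complete control and 0 no effect. Evaluation took place twelve to sixteen days after the 2-leaf-stage plants were treated and kept in the greenhouse.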

corn = experiment: Test B pre/postemergence corn; assay type: in vivo, Zea mays
Summary of the method: as §1

purple nutsedge = experiment: Test B pre/postemergence purple nutsedge; assay type: in vivo, Cyperus rotundus
Summary of the method: as §1

smallflower flatsedge = experiment: Test B flood test smallflower flatsedge; assay type: in vivo, Cyperus difformis; details: for Plant response rating, S. Flatsedge (0 to 10 scale, 0 is no effect, 10 is complete control): Rate 62 g/ha; for Plant response rating, S. Flatsedge (0 to 10 scale, 0 is no effect, 10 is complete control) / S. Flatsedge plant response rating (0 to 10 scale, 0 is no effect, 10 is complete control): visual evaluation after twelve to sixteen days; for S. Flatsedge plant response rating (0 to 10 scale, 0 is no effect, 10 is complete control): Rate 125 g/ha, under heading Pre-emergence
Summary of the method: as §2

bamyardgrass = experiment: Test B flood test barnyardgrass; assay type: in vivo, Echinochloa crus-galli; details: for Plant response rating, Barnyardgrass (0 to 10 scale, 0 is no effect, 10 is complete control): Rate 62 g/ha; for Plant response rating, Barnyardgrass (0 to 10 scale, 0 is no effect, 10 is complete control) / Barnyardgrass plant response rating (0 to 10 scale, 0 is no effect, 10 is complete control): visual evaluation after twelve to sixteen days; for Barnyardgrass plant response rating (0 to 10 scale, 0 is no effect, 10 is complete control): Rate 125 g/ha, under heading Pre-emergence
Procedure: At the same time, these crop and weed species were also treated with postemergence applications of test chemicals formulated in the same manner. Plants ranged in height from 2 to 18 cm (1- to 4-leaf stage) for postemergence treatments. Plant species in the flood test consisted of rice (Oryza sativa), smallflower flatsedge (Cyperus difformis), duck salad (Heteranthera limosa) and bamyardgrass (Echinochloa crus-galli) grown to the 2-leaf stage for testing. Treated plants and controls were maintained in a greenhouse for twelve to sixteen days, after which all species were compared to controls and visually evaluated. Plant response ratings, summarized in Table B, are based on a scale of 0 to 10 where 0 is no effect and 10 is complete control. A dash (−) response means no test result.

wheat = experiment: Test B pre/postemergence wheat; assay type: in vivo, Triticum aestivum
Summary of the method: as §1

soybean = experiment: Test B pre/postemergence soybean; assay type: in vivo, Glycine max
Summary of the method: as §1

duck salad = experiment: Test B flood test duck salad; assay type: in vivo, Heteranthera limosa; details: for Plant response rating, Ducksalad (0 to 10 scale, 0 is no effect, 10 is complete control): Rate 62 g/ha; for Plant response rating, Ducksalad (0 to 10 scale, 0 is no effect, 10 is complete control) / Ducksalad plant response rating (0 to 10 scale, 0 is no effect, 10 is complete control): visual evaluation after twelve to sixteen days; for Ducksalad plant response rating (0 to 10 scale, 0 is no effect, 10 is complete control): Rate 125 g/ha, under heading Pre-emergence
Summary of the method: as §2

pigweed = experiment: Test B pre/postemergence pigweed; assay type: in vivo, Amaranthus retroflexus
Summary of the method: as §1

rape = experiment: Test B pre/postemergence rape; assay type: in vivo, Brassica napus
Summary of the method: as §1

velvetleaf = experiment: Test B pre/postemergence velvetleaf; assay type: in vivo, Abutilon theophrasti
Summary of the method: as §1

crabgrass = experiment: Test B pre/postemergence crabgrass; assay type: in vivo, Digitaria sanguinalis
Summary of the method: as §1

giant foxtail = experiment: Test B pre/postemergence giant foxtail; assay type: in vivo, Setaria faberii
Summary of the method: as §1

cocklebur = experiment: Test B pre/postemergence cocklebur; assay type: in vivo, Xanthium strumarium
Summary of the method: as §1

wild oat = experiment: Test B pre/postemergence wild oat; assay type: in vivo, Avena fatua
Summary of the method: as §1

blackgrass = experiment: Test B pre/postemergence blackgrass; assay type: in vivo, Alopecurus myosuroides
Summary of the method: as §1

[1] = Postemergence, Rate 250 g/ha, scale 0 to 10, 0 is no effect, 10 is complete control
[2] = Postemergence, Rate 500 g/ha, scale of 0 to 10 where 0 is no effect and 10 is complete control
[3] = Preemergence, Rate 62 g/ha, scale 0 to 10 (0 no effect, 10 complete control)
[4] = Preemergence, Rate 125 g/ha, scale of 0 to 10 where 0 is no effect and 10 is complete control
[5] = Preemergence, Rate 250 g/ha, scale 0 to 10, 0 is no effect, 10 is complete control
[6] = Preemergence, Rate 500 g/ha, scale 0 to 10, 0 is no effect, 10 is complete control
[7] = Postemergence, Rate 125 g/ha, scale 0 to 10, 0 is no effect, 10 is complete control
[8] = Preemergence, Rate 250 g/ha, scale of 0 to 10 where 0 is no effect and 10 is complete control
[9] = Rate 62 g/ha, Postemergence, scale of 0 to 10 where 0 is no effect and 10 is complete control
[10] = flood test species, Pre-emergence
[11] = Rate 250 g/ha, Pre-emergence, flood-test species, scale 0 to 10, 0 is no effect, 10 is complete control
[12] = Rate 500 g/ha, Pre-emergence, flood test species, scale 0 to 10 (0 no effect, 10 complete control)
[13] = Rate 250 g/ha, Pre-emergence (flood test species), scale 0 to 10, 0 is no effect, 10 is complete control
[14] = Rate 500 g/ha, Pre-emergence section of Table B, 0 to 10 scale (0 no effect, 10 complete control)

Cc1nc(Cl)sc1C(C)n1c(=O)on(C(=O)N(c2ccc(F)cc2F)C(C)C)c1=O (centres unmarked) [Compound 405]
2: Plant response rating, Soybean (soybean; [1]) | Rape plant response rating (rape; [2])
0: Plant response rating, Sugarbeets (sugar beet; [1]) | Sugarbeets plant response rating (sugar beet; [2]) | Plant response rating, Sugarbeets (sugar beet; [3]) | Plant response rating, Sugarbeets (sugar beet; [4]) | Sugarbeets plant response rating (sugar beet; [5]) | Sugarbeets plant response rating (sugar beet; [6]) | Plant response rating, B. signalgrass (surinam grass; [7]) | Plant response rating, B. signalgrass (surinam grass; [1]) | B. signalgrass plant response rating (surinam grass; [2]) | Plant response rating, B. signalgrass (surinam grass; [3]) | Plant response rating, B. signalgrass (surinam grass; [4]) | B. signalgrass plant response rating (surinam grass; [8]) | B. signalgrass plant response rating (surinam grass; Preemergence, Rate 500 g/ha, scale of 0 to 10 where 0 is no effect and 10 is complete control) | B. signalgrass plant response rating (surinam grass; [9]) | Plant response rating, Morningglory (morningglory; [3]) | Plant response rating, Morningglory (morningglory; [4]) | Morningglory plant response rating (morningglory; [5]) | Morningglory plant response rating (morningglory; [6]) | Plant response rating, Rice (0 to 10 scale, 0 is no effect, 10 is complete control) (rice; [10]) | Rice plant response rating (0 to 10 scale, 0 is no effect, 10 is complete control) (rice; flood test species) | Rice plant response rating (rice; [11]) | Rice plant response rating (rice; [12]) | Plant response rating, Corn (corn; [7]) | Plant response rating, Corn (corn; [1]) | Corn plant response rating (corn; [2]) | Plant response rating, Corn (corn; [3]) | Plant response rating, Corn (corn; [4]) | Corn plant response rating (corn; [5]) | Corn plant response rating (corn; [9]) | Plant response rating, Nutsedge (purple nutsedge; [1]) | Nutsedge plant response rating (purple nutsedge; [2]) | Plant response rating, Nutsedge (purple nutsedge; [3]) | Plant response rating, Nutsedge (purple nutsedge; [4]) | Nutsedge plant response rating (purple nutsedge; [5]) | Nutsedge plant response rating (purple nutsedge; [6]) | Plant response rating, S. Flatsedge (0 to 10 scale, 0 is no effect, 10 is complete control) (smallflower flatsedge; [10]) | S. Flatsedge plant response rating (0 to 10 scale, 0 is no effect, 10 is complete control) (smallflower flatsedge; flood test species) | S. Flatsedge plant response rating (smallflower flatsedge; [11]) | S. Flatsedge plant response rating (smallflower flatsedge; [12]) | Plant response rating, Barnyardgrass (0 to 10 scale, 0 is no effect, 10 is complete control) (bamyardgrass; [10]) | Barnyardgrass plant response rating (0 to 10 scale, 0 is no effect, 10 is complete control) (bamyardgrass; flood test species) | Barnyardgrass plant response rating (bamyardgrass; [11]) | Barnyardgrass plant response rating (bamyardgrass; [12]) | Wheat plant response rating (wheat; [2]) | Plant response rating, Wheat (wheat; [3]) | Plant response rating, Wheat (wheat; [4]) | Wheat plant response rating (wheat; [5]) | Wheat plant response rating (wheat; [6]) | Plant response rating, Soybean (soybean; [3]) | Plant response rating, Soybean (soybean; [4]) | Soybean plant response rating (soybean; [5]) | Plant response rating, Ducksalad (0 to 10 scale, 0 is no effect, 10 is complete control) (duck salad; [10]) | Ducksalad plant response rating (0 to 10 scale, 0 is no effect, 10 is complete control) (duck salad; flood test species) | Ducksalad plant response rating (duck salad; [11]) | Ducksalad plant response rating (duck salad; [12]) | Plant response rating, Redroot pigweed (pigweed; [1]) | Redroot pigweed plant response rating (pigweed; [2]) | Plant response rating, Redroot pigweed (pigweed; [3]) | Plant response rating, Redroot pigweed (pigweed; [4]) | Redroot pigweed plant response rating (pigweed; [5]) | Redroot pigweed plant response rating (pigweed; [6]) | Plant response rating, Rape (rape; [1]) | Plant response rating, Rape (rape; [3]) | Plant response rating, Rape (rape; [4]) | Rape plant response rating (rape; [5]) | Rape plant response rating (rape; [6]) | Plant response rating, Velvetleaf (velvetleaf; [1]) | Velvetleaf plant response rating (velvetleaf; [2]) | Plant response rating, Velvetleaf (velvetleaf; [3]) | Plant response rating, Velvetleaf (velvetleaf; [4]) | Velvetleaf plant response rating (velvetleaf; [5]) | Velvetleaf plant response rating (velvetleaf; [6]) | Plant response rating, Crabgrass (crabgrass; [7]) | Plant response rating, Crabgrass (crabgrass; [1]) | Crabgrass plant response rating (crabgrass; [2]) | Plant response rating, Crabgrass (crabgrass; [3]) | Crabgrass plant response rating (crabgrass; [9]) | Plant response rating, Giant foxtail (giant foxtail; [7]) | Plant response rating, Giant foxtail (giant foxtail; [1]) | Plant response rating, Giant foxtail (giant foxtail; [3]) | Giant foxtail plant response rating (giant foxtail; [9]) | Plant response rating, Cocklebur (cocklebur; [7]) | Plant response rating, Cocklebur (cocklebur; [1]) | Cocklebur plant response rating (cocklebur; [2]) | Plant response rating, Cocklebur (cocklebur; [3]) | Plant response rating, Cocklebur (cocklebur; [4]) | Cocklebur plant response rating (cocklebur; [5]) | Cocklebur plant response rating (cocklebur; [6]) | Cocklebur plant response rating (cocklebur; [9]) | Wild oats plant response rating (wild oat; [2]) | Plant response rating, Wild oats (wild oat; [3]) | Plant response rating, Wild oats (wild oat; [4]) | Wild oats plant response rating (wild oat; [5]) | Wild oats plant response rating (wild oat; [6]) | Plant response rating, Blackgrass (blackgrass; [7]) | Plant response rating, Blackgrass (blackgrass; [1]) | Plant response rating, Blackgrass (blackgrass; [3]) | Plant response rating, Blackgrass (blackgrass; [4]) | Blackgrass plant response rating (blackgrass; [8]) | Blackgrass plant response rating (blackgrass; [6]) | Blackgrass plant response rating (blackgrass; [9])
5: Plant response rating, Morningglory (morningglory; [1]) | Morningglory plant response rating (morningglory; [2]) | Blackgrass plant response rating (blackgrass; [2])
9: Giant foxtail plant response rating (giant foxtail; [5])
3: Soybean plant response rating (soybean; [2]) | Soybean plant response rating (soybean; [6])
6: Giant foxtail plant response rating (giant foxtail; [2])
8: Crabgrass plant response rating (crabgrass; [5]) | Plant response rating, Giant foxtail (giant foxtail; [4])
1: Plant response rating, Crabgrass (crabgrass; [4])
10: Crabgrass plant response rating (crabgrass; [6]) | Giant foxtail plant response rating (giant foxtail; [6])

C=C(C(=O)OC)C(C)n1c(=O)on(C(=O)N(c2ccccc2)C(C)C)c1=O (centres unmarked) [Compound 651]
0: Plant response rating, Rice (0 to 10 scale, 0 is no effect, 10 is complete control) (rice; [10]) | Rice plant response rating (0 to 10 scale, 0 is no effect, 10 is complete control) (rice; flood test species) | Rice plant response rating (rice; [13]) | Rice plant response rating (rice; [14]) | Plant response rating, S. Flatsedge (0 to 10 scale, 0 is no effect, 10 is complete control) (smallflower flatsedge; [10]) | S. Flatsedge plant response rating (0 to 10 scale, 0 is no effect, 10 is complete control) (smallflower flatsedge; flood test species) | S. Flatsedge plant response rating (smallflower flatsedge; [13]) | S. Flatsedge plant response rating (smallflower flatsedge; [14]) | Plant response rating, Barnyardgrass (0 to 10 scale, 0 is no effect, 10 is complete control) (bamyardgrass; [10]) | Barnyardgrass plant response rating (0 to 10 scale, 0 is no effect, 10 is complete control) (bamyardgrass; flood test species) | Barnyardgrass plant response rating (bamyardgrass; [13]) | Barnyardgrass plant response rating (bamyardgrass; [14]) | Plant response rating, Ducksalad (0 to 10 scale, 0 is no effect, 10 is complete control) (duck salad; [10]) | Ducksalad plant response rating (0 to 10 scale, 0 is no effect, 10 is complete control) (duck salad; flood test species) | Ducksalad plant response rating (duck salad; [13]) | Ducksalad plant response rating (duck salad; [14])
